{"source": "ChEMBL document CHEMBL1147004", "about": "“Alkynyl pyrimidines as dual EGFR/ErbB2 kinase inhibitors” (Bioorg Med Chem Lett, 2006)", "key": {"[1]": {"biological_target": "Epidermal growth factor receptor (Homo sapiens, UniProt P00533)", "sequence (P00533 whole entry)": "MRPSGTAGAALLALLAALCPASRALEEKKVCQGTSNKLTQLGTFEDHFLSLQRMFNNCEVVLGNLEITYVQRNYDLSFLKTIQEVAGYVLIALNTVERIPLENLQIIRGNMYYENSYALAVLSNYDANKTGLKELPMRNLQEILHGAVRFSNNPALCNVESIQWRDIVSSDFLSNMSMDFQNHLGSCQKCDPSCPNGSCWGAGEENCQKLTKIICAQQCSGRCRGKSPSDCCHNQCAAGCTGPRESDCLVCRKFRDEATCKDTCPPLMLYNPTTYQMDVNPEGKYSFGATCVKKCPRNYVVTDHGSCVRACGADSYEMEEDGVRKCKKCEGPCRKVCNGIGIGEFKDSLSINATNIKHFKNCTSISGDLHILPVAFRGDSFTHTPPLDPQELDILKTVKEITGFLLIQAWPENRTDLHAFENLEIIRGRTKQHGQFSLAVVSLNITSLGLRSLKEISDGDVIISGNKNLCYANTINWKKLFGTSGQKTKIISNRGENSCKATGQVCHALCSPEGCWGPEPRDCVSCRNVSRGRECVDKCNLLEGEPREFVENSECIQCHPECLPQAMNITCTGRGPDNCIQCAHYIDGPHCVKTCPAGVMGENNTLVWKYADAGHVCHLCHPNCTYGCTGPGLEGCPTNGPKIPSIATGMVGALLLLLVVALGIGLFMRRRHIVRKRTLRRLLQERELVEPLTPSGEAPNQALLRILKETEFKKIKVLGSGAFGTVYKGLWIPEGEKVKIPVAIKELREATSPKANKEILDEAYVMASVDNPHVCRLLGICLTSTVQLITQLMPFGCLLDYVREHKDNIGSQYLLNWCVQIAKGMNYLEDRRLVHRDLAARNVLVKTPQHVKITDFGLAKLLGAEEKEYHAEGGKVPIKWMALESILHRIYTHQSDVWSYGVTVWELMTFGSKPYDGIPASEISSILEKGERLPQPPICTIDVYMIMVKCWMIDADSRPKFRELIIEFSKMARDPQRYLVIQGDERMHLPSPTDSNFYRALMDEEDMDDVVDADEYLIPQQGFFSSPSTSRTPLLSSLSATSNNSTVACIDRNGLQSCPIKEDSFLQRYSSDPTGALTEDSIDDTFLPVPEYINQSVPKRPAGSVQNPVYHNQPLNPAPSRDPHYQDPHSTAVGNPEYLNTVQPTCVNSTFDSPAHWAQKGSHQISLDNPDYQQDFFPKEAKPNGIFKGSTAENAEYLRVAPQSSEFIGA"}, "HN5": {"tested_on": "HN5", "assay": "Antiproliferative activity against human HN5 cell line"}, "HFF": {"tested_on": "HFF", "assay": "Antiproliferative activity against human HFF cell line"}, "BT-474": {"tested_on": "BT-474", "assay": "Antiproliferative activity against human BT474 cell line"}, "[2]": {"biological_target": "Receptor tyrosine-protein kinase erbB-2 (Homo sapiens, UniProt P04626)", "sequence (P04626 whole entry)": "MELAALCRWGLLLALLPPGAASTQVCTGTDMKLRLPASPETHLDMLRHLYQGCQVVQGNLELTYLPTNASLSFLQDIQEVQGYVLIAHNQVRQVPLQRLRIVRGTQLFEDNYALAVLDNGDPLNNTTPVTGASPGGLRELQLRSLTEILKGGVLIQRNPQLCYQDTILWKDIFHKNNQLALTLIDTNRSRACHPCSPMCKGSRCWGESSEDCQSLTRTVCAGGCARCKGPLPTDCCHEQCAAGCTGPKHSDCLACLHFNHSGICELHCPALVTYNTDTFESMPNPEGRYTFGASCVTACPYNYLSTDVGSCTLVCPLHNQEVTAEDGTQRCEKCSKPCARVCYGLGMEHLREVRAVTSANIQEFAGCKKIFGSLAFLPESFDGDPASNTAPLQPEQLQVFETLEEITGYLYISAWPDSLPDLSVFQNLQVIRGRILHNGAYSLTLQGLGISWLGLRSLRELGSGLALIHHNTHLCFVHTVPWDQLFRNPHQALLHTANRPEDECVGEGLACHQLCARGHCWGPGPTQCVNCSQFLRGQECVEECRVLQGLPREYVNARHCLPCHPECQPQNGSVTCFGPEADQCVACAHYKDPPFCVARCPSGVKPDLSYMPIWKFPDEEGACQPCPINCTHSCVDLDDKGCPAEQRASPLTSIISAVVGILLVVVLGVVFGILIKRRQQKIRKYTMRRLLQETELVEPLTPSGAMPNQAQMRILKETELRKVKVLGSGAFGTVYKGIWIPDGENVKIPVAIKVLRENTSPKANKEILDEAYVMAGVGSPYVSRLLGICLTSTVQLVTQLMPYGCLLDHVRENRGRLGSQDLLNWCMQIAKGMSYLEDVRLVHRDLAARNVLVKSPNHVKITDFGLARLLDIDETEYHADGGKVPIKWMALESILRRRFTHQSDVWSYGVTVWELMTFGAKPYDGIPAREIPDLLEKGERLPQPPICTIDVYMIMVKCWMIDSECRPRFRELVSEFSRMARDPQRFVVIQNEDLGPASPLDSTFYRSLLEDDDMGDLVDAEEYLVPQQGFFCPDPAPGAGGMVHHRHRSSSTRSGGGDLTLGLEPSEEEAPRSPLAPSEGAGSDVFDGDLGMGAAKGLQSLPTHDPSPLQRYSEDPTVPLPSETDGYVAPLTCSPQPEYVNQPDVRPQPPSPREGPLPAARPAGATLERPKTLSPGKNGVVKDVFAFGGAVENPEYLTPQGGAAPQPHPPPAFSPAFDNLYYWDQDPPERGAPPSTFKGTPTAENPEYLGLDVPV", "assay": "Inhibition of ErbB2"}, "[3]": {"assay": "Permeability in PAMPA", "assay_type": "ADME", "conditions": "read-out: permeability"}}, "data": [{"compound": "OCc1ccc(C#Cc2cncnc2Nc2ccc(OCc3cccc(F)c3)c(Cl)c2)o1", "values": [{"measurement": "IC50", "setting": "[1]", "result": 33, "unit": "nM"}, {"measurement": "IC50", "setting": "HN5", "result": 930, "unit": "nM"}, {"measurement": "IC50", "setting": "HFF", "result": 15800, "unit": "nM"}, {"measurement": "IC50", "setting": "BT-474", "result": 2040, "unit": "nM"}, {"measurement": "IC50", "setting": "[2]", "result": 47, "unit": "nM"}]}, {"compound": "OCc1cccc(C#Cc2cncnc2Nc2ccc(OCc3cccc(F)c3)c(Cl)c2)n1", "values": [{"measurement": "IC50", "setting": "HFF", "result": "> 30000", "unit": "nM"}, {"measurement": "IC50", "setting": "BT-474", "result": 5790, "unit": "nM"}, {"measurement": "IC50", "setting": "[2]", "result": 13, "unit": "nM"}]}, {"compound": "Nc1ccccc1C#Cc1cncnc1Nc1ccc(OCc2cccc(F)c2)c(Cl)c1", "values": [{"measurement": "IC50", "setting": "[1]", "result": 63, "unit": "nM"}, {"measurement": "IC50", "setting": "[2]", "result": 91, "unit": "nM"}]}, {"compound": "Fc1cccc(COc2ccc(Nc3ncncc3C#Cc3ccccn3)cc2Cl)c1", "values": [{"measurement": "IC50", "setting": "[1]", "result": 17, "unit": "nM"}, {"measurement": "IC50", "setting": "[2]", "result": 55, "unit": "nM"}]}, {"compound": "OCc1nc(C#Cc2cncnc2Nc2ccc(OCc3cccc(F)c3)c(Cl)c2)cs1", "values": [{"measurement": "IC50", "setting": "[1]", "result": 76, "unit": "nM"}, {"measurement": "IC50", "setting": "[2]", "result": 160, "unit": "nM"}]}, {"compound": "Nc1cccc(C#Cc2cncnc2Nc2ccc(OCc3cccc(F)c3)c(Cl)c2)c1", "values": [{"measurement": "IC50", "setting": "[1]", "result": 42, "unit": "nM"}, {"measurement": "IC50", "setting": "[2]", "result": 44, "unit": "nM"}]}, {"compound": "Fc1cccc(COc2ccc(Nc3ncncc3C#Cc3cc[nH]n3)cc2Cl)c1", "values": [{"measurement": "IC50", "setting": "[1]", "result": 42, "unit": "nM"}, {"measurement": "IC50", "setting": "[2]", "result": 66, "unit": "nM"}]}, {"compound": "Fc1cccc(COc2ccc(Nc3ccncn3)cc2Cl)c1", "values": [{"measurement": "IC50", "setting": "[1]", "result": 320, "unit": "nM"}, {"measurement": "IC50", "setting": "[2]", "result": 21000, "unit": "nM"}]}, {"compound": "C#Cc1cncnc1Nc1ccc(OCc2cccc(F)c2)c(Cl)c1", "values": [{"measurement": "IC50", "setting": "[1]", "result": 85, "unit": "nM"}, {"measurement": "IC50", "setting": "[2]", "result": 3800, "unit": "nM"}]}, {"compound": "NCc1cccc(C#Cc2cncnc2Nc2ccc(OCc3cccc(F)c3)c(Cl)c2)n1", "values": [{"measurement": "IC50", "setting": "[1]", "result": 21, "unit": "nM"}, {"measurement": "IC50", "setting": "[2]", "result": 38, "unit": "nM"}]}, {"compound": "CS(=O)(=O)CCNC(=O)NCc1cccc(C#Cc2cncnc2Nc2ccc(OCc3cccc(F)c3)c(Cl)c2)n1", "values": [{"measurement": "IC50", "setting": "[1]", "result": 15, "unit": "nM"}, {"measurement": "IC50", "setting": "HN5", "result": 770, "unit": "nM"}, {"measurement": "IC50", "setting": "HFF", "result": "> 30000", "unit": "nM"}, {"measurement": "IC50", "setting": "BT-474", "result": 840, "unit": "nM"}, {"measurement": "IC50", "setting": "[2]", "result": 9, "unit": "nM"}]}, {"compound": "COC(=O)CCCC(=O)Nc1cccc(C#Cc2cncnc2Nc2ccc(OCc3cccc(F)c3)c(Cl)c2)c1", "values": [{"measurement": "IC50", "setting": "[1]", "result": 31, "unit": "nM"}, {"measurement": "IC50", "setting": "HN5", "result": 3470, "unit": "nM"}, {"measurement": "IC50", "setting": "HFF", "result": 22400, "unit": "nM"}, {"measurement": "IC50", "setting": "BT-474", "result": 4240, "unit": "nM"}, {"measurement": "IC50", "setting": "[2]", "result": 29, "unit": "nM"}]}, {"compound": "Fc1cccc(COc2ccc(Nc3ncncc3C#Cc3ncccn3)cc2Cl)c1", "values": [{"measurement": "IC50", "setting": "[1]", "result": 77, "unit": "nM"}, {"measurement": "IC50", "setting": "[2]", "result": 60, "unit": "nM"}]}, {"compound": "CS(=O)(=O)Nc1cccc(C#Cc2cncnc2Nc2ccc(OCc3cccc(F)c3)c(Cl)c2)c1", "values": [{"measurement": "IC50", "setting": "[1]", "result": 110, "unit": "nM"}, {"measurement": "IC50", "setting": "[2]", "result": 45, "unit": "nM"}]}, {"compound": "CNC(=O)NCc1cccc(C#Cc2cncnc2Nc2ccc(OCc3cccc(F)c3)c(Cl)c2)n1", "values": [{"measurement": "IC50", "setting": "[1]", "result": 23, "unit": "nM"}, {"measurement": "IC50", "setting": "[2]", "result": 69, "unit": "nM"}]}, {"compound": "CS(=O)(=O)CCC(=O)Nc1cccc(C#Cc2cncnc2Nc2ccc(OCc3cccc(F)c3)c(Cl)c2)c1", "values": [{"measurement": "IC50", "setting": "[1]", "result": 50, "unit": "nM"}, {"measurement": "IC50", "setting": "[2]", "result": 32, "unit": "nM"}]}, {"compound": "CC(=O)Nc1ccc(C#Cc2cncnc2Nc2ccc(OCc3cccc(F)c3)c(Cl)c2)cc1", "values": [{"measurement": "IC50", "setting": "[1]", "result": 25100, "unit": "nM"}, {"measurement": "IC50", "setting": "[2]", "result": 1820, "unit": "nM"}]}, {"compound": "Fc1cccc(COc2ccc(Nc3ncncc3C#Cc3cccnc3)cc2Cl)c1", "values": [{"measurement": "IC50", "setting": "[1]", "result": 74, "unit": "nM"}, {"measurement": "IC50", "setting": "[2]", "result": 140, "unit": "nM"}]}, {"compound": "Fc1cccc(COc2ccc(Nc3ncncc3C#Cc3ccccc3)cc2Cl)c1", "note": "[GW651576X]", "values": [{"measurement": "IC50", "setting": "[1]", "result": 79, "unit": "nM"}, {"measurement": "IC50", "setting": "[2]", "result": 780, "unit": "nM"}]}, {"compound": "Nc1ccc(C#Cc2cncnc2Nc2ccc(OCc3cccc(F)c3)c(Cl)c2)cc1", "note": "[GW659893X]", "values": [{"measurement": "IC50", "setting": "[1]", "result": 30, "unit": "nM"}, {"measurement": "IC50", "setting": "[2]", "result": 36, "unit": "nM"}]}, {"compound": "CC(=O)Nc1cccc(C#Cc2cncnc2Nc2ccc(OCc3cccc(F)c3)c(Cl)c2)c1", "note": "[GW703087X]", "values": [{"measurement": "IC50", "setting": "[1]", "result": 12, "unit": "nM"}, {"measurement": "IC50", "setting": "HN5", "result": 13700, "unit": "nM"}, {"measurement": "IC50", "setting": "HFF", "result": "> 30000", "unit": "nM"}, {"measurement": "IC50", "setting": "BT-474", "result": 21600, "unit": "nM"}, {"measurement": "Papp", "setting": "[3]", "result": "< 0.3", "unit": "×10⁻⁶ cm/s"}, {"measurement": "IC50", "setting": "[2]", "result": 13, "unit": "nM"}]}, {"compound": "CNC(=O)c1cccc(C#Cc2cncnc2Nc2ccc(OCc3cccc(F)c3)c(Cl)c2)c1", "note": "[GW772405X]", "values": [{"measurement": "IC50", "setting": "[1]", "result": 79, "unit": "nM"}, {"measurement": "IC50", "setting": "[2]", "result": 32, "unit": "nM"}]}, {"compound": "CC(=O)Nc1cccc(C#Cc2cncnc2Nc2ccc(OCc3cccc(F)c3)c(Cl)c2)n1", "note": "[GW794726X]", "values": [{"measurement": "IC50", "setting": "[1]", "result": 91, "unit": "nM"}, {"measurement": "IC50", "setting": "[2]", "result": 59, "unit": "nM"}]}, {"compound": "Nc1nccc(C#Cc2cncnc2Nc2ccc(OCc3cccc(F)c3)c(Cl)c2)n1", "note": "[GW799251X]", "values": [{"measurement": "IC50", "setting": "[2]", "result": 12, "unit": "nM"}]}, {"compound": "CC(=O)NCc1cccc(C#Cc2cncnc2Nc2ccc(OCc3cccc(F)c3)c(Cl)c2)c1", "note": "[GW807930X]", "values": [{"measurement": "IC50", "setting": "[1]", "result": 60, "unit": "nM"}, {"measurement": "IC50", "setting": "[2]", "result": 52, "unit": "nM"}]}]}
